Results reported in patent publication US9955691B2, “Macrocyclic picolinamides as fungicides” (DOW AGROSCIENCES LLC, priority 2014, dated 2018).

How the values were obtained:
Format in all cases: in vivo
[1] = test system: Leptosphaeria nodorum; test: Fungicidal activity: Wheat Glume Blotch (LEPTNO); settings: 100 ppm, 1 DP (1 Day Protectant)
Method: Technical grades of materials were dissolved in acetone, which were then mixed with nine volumes of water containing 110 ppm Triton X-100. The fungicide solutions were applied onto wheat seedlings using an automated booth sprayer to run-off. All sprayed plants were allowed to air dry prior to further handling. All fungicides were evaluated using the aforementioned method for their activity vs. all target diseases, unless stated otherwise. Wheat leaf blotch and brown rust activity were also evaluated using track spray applications, in which case the fungicides were formulated as EC formulations, containing 0.1% Trycol 5941 in the spray solutions. Wheat plants (variety Yuma) were grown from seed in a greenhouse in 50% mineral soil/50% soil-less Metro mix until the first leaf was fully emerged, with 7-10 seedlings per pot. These plants were inoculated with an aqueous spore suspension of Septoria tritici either prior to or after fungicide treatments. After inoculation the plants were kept in 100% relative humidity (one day in a dark dew chamber followed by two to three days in a lighted dew chamber at 20° C.) to permit spores to germinate and infect the leaf. The plants were then transferred to a greenhouse set at 20° C. for disease to develop. When disease symptoms were fully expressed on the 1st leaves of untreated plants, infection levels were assessed on a scale of 0 to 100 percent disease severity. Percent disease control was calculated using the ratio of disease severity on treated plants relative to untreated plants. Evaluation of Fungicidal Activity: Wheat Glume Blotch (Leptosphaeria nodorum; Bayer Code […]) Wheat plants (variety Yuma) were grown from seed in a greenhouse in 50% mineral soil/50% soil-less Metro mix until the first leaf was fully emerged, with 7-10 seedlings per pot. These plants were inoculated with an aqueous spore suspension of Leptosphaeria nodorum 24 hr after fungicide treatments. After inoculation the plants were kept in 100% relative humidity (one day in a dark dew chamber followed by two days in a lighted dew chamber at 20° C.) to permit spores to germinate and infect the leaf. The plants were then transferred to a greenhouse set at 20° C. for disease to develop. Fungicide formulation, application and disease assessment followed the procedures as described in the Example A.

[2] = test system: Venturia inaequalis; test: Fungicidal activity: Apple Scab (VENTIN); settings: 100 ppm, 1 DP (1 Day Protectant)
[3] = test system: Uncinula necator; test: Fungicidal activity: Grape Powdery Mildew (UNCINE); settings: 100 ppm, 1 DP (1 Day Protectant)
Method: Technical grades of materials were dissolved in acetone, which were then mixed with nine volumes of water containing 110 ppm Triton X-100. The fungicide solutions were applied onto wheat seedlings using an automated booth sprayer to run-off. All sprayed plants were allowed to air dry prior to further handling. All fungicides were evaluated using the aforementioned method for their activity vs. all target diseases, unless stated otherwise. Wheat leaf blotch and brown rust activity were also evaluated using track spray applications, in which case the fungicides were formulated as EC formulations, containing 0.1% Trycol 5941 in the spray solutions. Wheat plants (variety Yuma) were grown from seed in a greenhouse in 50% mineral soil/50% soil-less Metro mix until the first leaf was fully emerged, with 7-10 seedlings per pot. These plants were inoculated with an aqueous spore suspension of Septoria tritici either prior to or after fungicide treatments. After inoculation the plants were kept in 100% relative humidity (one day in a dark dew chamber followed by two to three days in a lighted dew chamber at 20° C.) to permit spores to germinate and infect the leaf. The plants were then transferred to a greenhouse set at 20° C. for disease to develop. When disease symptoms were fully expressed on the 1st leaves of untreated plants, infection levels were assessed on a scale of 0 to 100 percent disease severity. Percent disease control was calculated using the ratio of disease severity on treated plants relative to untreated plants. Evaluation of Fungicidal Activity: Grape Powdery Mildew (Uncinula necator; Bayer code […]) Grape seedlings (variety Carignane) were grown in soil-less Metro mix, with one plant per pot, and used in the test when approximately one month old. Plants were inoculated 24 hr after fungicide treatment by shaking spores from infected leaves over test plants. Plants were maintained in a greenhouse set at 20° C. until disease was fully developed. […]

[4] = test system: Erysiphe cichoracearum; test: Fungicidal activity: Powdery Mildew of Cucumber (ERYSCI); settings: 100 ppm, 1 DP (1 Day Protectant)
[5] = test system: Cercospora beticola; test: Fungicidal activity: Leaf Spot of Sugar Beets (CERCBE); settings: 100 ppm, 1 DP (1 Day Protectant), sugar beet
Method: Technical grades of materials were dissolved in acetone, which were then mixed with nine volumes of water containing 110 ppm Triton X-100. The fungicide solutions were applied onto wheat seedlings using an automated booth sprayer to run-off. All sprayed plants were allowed to air dry prior to further handling. All fungicides were evaluated using the aforementioned method for their activity vs. all target diseases, unless stated otherwise. Wheat leaf blotch and brown rust activity were also evaluated using track spray applications, in which case the fungicides were formulated as EC formulations, containing 0.1% Trycol 5941 in the spray solutions. Wheat plants (variety Yuma) were grown from seed in a greenhouse in 50% mineral soil/50% soil-less Metro mix until the first leaf was fully emerged, with 7-10 seedlings per pot. These plants were inoculated with an aqueous spore suspension of Septoria tritici either prior to or after fungicide treatments. After inoculation the plants were kept in 100% relative humidity (one day in a dark dew chamber followed by two to three days in a lighted dew chamber at 20° C.) to permit spores to germinate and infect the leaf. The plants were then transferred to a greenhouse set at 20° C. for disease to develop. When disease symptoms were fully expressed on the 1st leaves of untreated plants, infection levels were assessed on a scale of 0 to 100 percent disease severity. Percent disease control was calculated using the ratio of disease severity on treated plants relative to untreated plants. Evaluation of Fungicidal Activity: Leaf Spot of Sugar Beets (Cercospora beticola; Bayer Code CERCBE) Sugar beet plants (variety HH88) were grown in soil-less Metro mix and trimmed regularly to maintain a uniform plant size prior to test. Plants were inoculated with a spore suspension 24 hr after fungicide treatments. Inoculated plants were kept in a dew chamber at 22° C. for 48 hr then incubated in a greenhouse set at 24° C. under a clear plastic hood with bottom ventilation until disease symptoms were fully expressed. Fungicide formulation, application and disease assessment on the sprayed leaves followed the procedures as described in the Example A.

[6] = test system: Blumeria graminis f. sp. tritici; test: Fungicidal activity: Wheat Powdery Mildew (ERYSGT); settings: 100 ppm, 1 DP (1 Day Protectant)
[7] = test system: Magnaporthe grisea; Anamorph: Pyricularia oryzae; settings: 100 ppm, 1 DP (1 Day Protectant), rice
[8] = test system: Phakopsora pachyrhizi; test: Fungicidal activity: Asian Soybean Rust (PHAKPA); settings: 25 ppm, 1DP (1 Day Protectant)
Method: Evaluation of Fungicidal Activity: Asian Soybean Rust (Phakopsora pachyrhizi; Bayer Code PHAKPA)
Technical grades of materials were dissolved in acetone, which were then mixed with nine volumes of water containing 0.011% Tween 20. The fungicide solutions were applied onto soybean seedlings using an automated booth sprayer to run-off. All sprayed plants were allowed to air dry prior to further handling.
Soybean plants (variety Williams 82) were grown in soil-less Metro mix, with one plant per pot. Two weeks old seedlings were used for testing. Plants were inoculated either 3 days prior to or 1 day after fungicide treatments. Plants were incubated for 24 h in a dark dew room at 22° C. and 100% relative humidity then transferred to a growth room at 23° C. for disease to develop. Disease severity was assessed on the sprayed leaves.

SMILES	LEPTNO disease control rating [1]	VENTIN disease control rating [2]	UNCINE disease control rating [3]	ERYSCI disease control rating [4]	CERCBE disease control rating [5]	ERYSGT disease control rating [6]	PYRIOR disease control rating [7]	PHAKPA disease control rating [8]
CCCC[C@@H]1[C@@H](Cc2ccc(C(F)(F)F)cc2)COC[C@H](NC(=O)c2nccc(OC)c2OCOC(C)=O)C(=O)O[C@H]1C [compound 16]	A (>70)	A (>70)	A (>70)	A (>70)	A (>70)			
COc1ccnc(C(=O)N[C@H]2COC[C@H](c3ccccc3)[C@@H](c3ccccc3)[C@H](C)OC2=O)c1OCOC(C)=O [compound 7]			A (>70)	A (>70)	A (>70)	A (>70)	A (>70)	
COc1ccnc(C(=O)N[C@H]2COC[C@H](Cc3ccccc3)[C@@H](Cc3ccccc3)[C@H](C)OC2=O)c1OC(C)=O [compound 27]	A (>70)			B (≤70)	A (>70)		A (>70)	
COc1ccnc(C(=O)N[C@H]2COC[C@H](CC3CC3)[C@@H](c3ccccc3)[C@H](C)OC2=O)c1OC(C)=O [compound 100]	A (>70)			A (>70)	A (>70)		A (>70)	
COc1ccnc(C(=O)N[C@H]2COC[C@H](Cc3ccccc3)[C@@H](Cc3ccccc3)[C@H](C)OC2=O)c1OCOC(C)=O [Cmpd. 3, ((2-(((3S,7R,8R,9S)-7,8-dibenzyl-9-methyl-2-oxo-1,5-dioxonan-3-yl)carbamoyl)-4-methoxypyridin-3-yl)oxy)methyl acetate]	A (>70)						A (>70)	A (>70)
CCCC[C@@H]1[C@@H](Cc2ccccc2)COC[C@H](NC(=O)c2nccc(OC)c2OCOC(=O)C(C)C)C(=O)O[C@H]1C [compound 1]	A (>70)	B (≤70)	A (>70)	A (>70)	A (>70)		A (>70)	
